In the NIST ThermoML archive (doi:10.1016/j.tca.2013.08.031):

Assay: molar heat capacity at constant volume
Details: Fluid (supercritical or subcritical phases), Vacuum adiabatic calorimetry

CCC(C)O (stereo not given) [butan-2-ol]
Details | molar heat capacity at constant volume [J/K/mol]
527.47 K, Mass density=142.27 kg/m3 | 538.57
527.66 K, Mass density=142.27 kg/m3 | 541.75
527.84 K, Mass density=142.27 kg/m3 | 547.68
527.89 K, Mass density=142.27 kg/m3 | 524.19
527.91 K, Mass density=142.27 kg/m3 | 561.92
527.93 K, Mass density=142.27 kg/m3 | 439.91
527.95 K, Mass density=142.27 kg/m3 | 388.84
527.97 K, Mass density=142.27 kg/m3 | 388.92
527.99 K, Mass density=142.27 kg/m3 | 375.57
528.01 K, Mass density=142.27 kg/m3 | 386.62
528.02 K, Mass density=142.27 kg/m3 | 388.84
528.02 K, Mass density=403.55 kg/m3 | 319.46
528.21 K, Mass density=142.27 kg/m3 | 337.77
528.21 K, Mass density=403.55 kg/m3 | 320.21
528.39 K, Mass density=403.55 kg/m3 | 321.69
528.58 K, Mass density=403.55 kg/m3 | 321.69
528.76 K, Mass density=403.55 kg/m3 | 324.65
528.95 K, Mass density=142.27 kg/m3 | 295.37
528.95 K, Mass density=403.55 kg/m3 | 322.43
529.13 K, Mass density=142.27 kg/m3 | 274.69
529.13 K, Mass density=403.55 kg/m3 | 326.14
529.31 K, Mass density=142.27 kg/m3 | 275.36
529.31 K, Mass density=403.55 kg/m3 | 306.86
529.5 K, Mass density=403.55 kg/m3 | 232
529.68 K, Mass density=403.55 kg/m3 | 229.78
529.87 K, Mass density=403.55 kg/m3 | 227.55
530.05 K, Mass density=142.27 kg/m3 | 274.1
530.23 K, Mass density=142.27 kg/m3 | 282.55
530.23 K, Mass density=403.55 kg/m3 | 227.55
530.42 K, Mass density=142.27 kg/m3 | 282.33
530.42 K, Mass density=403.55 kg/m3 | 228.29
530.6 K, Mass density=403.55 kg/m3 | 232
530.79 K, Mass density=184.89 kg/m3 | 471.41
530.79 K, Mass density=403.55 kg/m3 | 229.78
530.97 K, Mass density=184.89 kg/m3 | 466.37
530.97 K, Mass density=403.55 kg/m3 | 232
531.15 K, Mass density=184.89 kg/m3 | 474.16
531.15 K, Mass density=347.06 kg/m3 | 363.2
531.15 K, Mass density=403.55 kg/m3 | 229.78
531.34 K, Mass density=184.89 kg/m3 | 489.72
531.34 K, Mass density=347.06 kg/m3 | 356.52
531.34 K, Mass density=403.55 kg/m3 | 233.48
531.52 K, Mass density=184.89 kg/m3 | 492.32
531.52 K, Mass density=347.06 kg/m3 | 358.01
531.52 K, Mass density=403.55 kg/m3 | 233.48
531.7 K, Mass density=184.89 kg/m3 | 488.16
531.7 K, Mass density=284.93 kg/m3 | 365.79
531.7 K, Mass density=301.19 kg/m3 | 380.99
531.7 K, Mass density=347.06 kg/m3 | 360.23
531.7 K, Mass density=403.55 kg/m3 | 237.19
531.89 K, Mass density=184.89 kg/m3 | 479.34
531.89 K, Mass density=284.93 kg/m3 | 377.35
531.89 K, Mass density=301.19 kg/m3 | 380.99
531.89 K, Mass density=347.06 kg/m3 | 364.68
531.89 K, Mass density=403.55 kg/m3 | 239.41
532.07 K, Mass density=184.89 kg/m3 | 478.97
532.07 K, Mass density=245.67 kg/m3 | 434.57
532.07 K, Mass density=284.93 kg/m3 | 387.43
532.07 K, Mass density=347.06 kg/m3 | 363.94
532.07 K, Mass density=403.55 kg/m3 | 238.67
532.26 K, Mass density=184.89 kg/m3 | 490.54
532.26 K, Mass density=245.67 kg/m3 | 439.02
532.26 K, Mass density=286.65 kg/m3 | 404.56
532.26 K, Mass density=301.19 kg/m3 | 388.4
532.26 K, Mass density=347.06 kg/m3 | 364.68
532.26 K, Mass density=403.55 kg/m3 | 236.45
532.44 K, Mass density=245.67 kg/m3 | 433.61
532.44 K, Mass density=286.65 kg/m3 | 410.63
532.44 K, Mass density=301.19 kg/m3 | 386.17
532.44 K, Mass density=347.06 kg/m3 | 361.71
532.62 K, Mass density=184.89 kg/m3 | 485.64
532.62 K, Mass density=198.25 kg/m3 | 477.94
532.62 K, Mass density=245.67 kg/m3 | 439.84
532.62 K, Mass density=286.65 kg/m3 | 417.75
532.62 K, Mass density=301.19 kg/m3 | 388.4
532.62 K, Mass density=347.06 kg/m3 | 361.71
532.62 K, Mass density=403.55 kg/m3 | 232
532.81 K, Mass density=184.89 kg/m3 | 501.51
532.81 K, Mass density=198.25 kg/m3 | 476.53
532.81 K, Mass density=245.67 kg/m3 | 441.76
532.81 K, Mass density=286.65 kg/m3 | 423.83
532.81 K, Mass density=301.19 kg/m3 | 385.43
532.81 K, Mass density=347.06 kg/m3 | 364.68
532.81 K, Mass density=403.55 kg/m3 | 231.26
532.81 K, Mass density=474.07 kg/m3 | 191.23
532.99 K, Mass density=184.89 kg/m3 | 501.8
532.99 K, Mass density=198.25 kg/m3 | 476.23
532.99 K, Mass density=245.67 kg/m3 | 435.17
532.99 K, Mass density=286.65 kg/m3 | 421.6
532.99 K, Mass density=301.19 kg/m3 | 390.62
532.99 K, Mass density=347.06 kg/m3 | 370.61
532.99 K, Mass density=474.07 kg/m3 | 191.23
533.17 K, Mass density=184.89 kg/m3 | 502.32
533.17 K, Mass density=198.25 kg/m3 | 482.38
533.17 K, Mass density=245.67 kg/m3 | 443.91
533.17 K, Mass density=284.93 kg/m3 | 404.04
533.17 K, Mass density=286.65 kg/m3 | 417.75
533.17 K, Mass density=301.19 kg/m3 | 393.59
533.17 K, Mass density=347.06 kg/m3 | 373.57
533.17 K, Mass density=474.07 kg/m3 | 197.16
533.36 K, Mass density=184.89 kg/m3 | 511.07
533.36 K, Mass density=198.25 kg/m3 | 490.83
533.36 K, Mass density=245.67 kg/m3 | 447.32
533.36 K, Mass density=284.93 kg/m3 | 410.71
533.36 K, Mass density=286.65 kg/m3 | 416.27
